Literature values in patent US20120157536A1, “COMPOSITION FOR TRANSDERMAL ADMINISTRATION OF NON-STEROIDAL ANTI-FLAMMATORY DRUG” (Polytherapeutics, Inc., priority 2010, published 2012).

Q: Which “Diclofenac Clearance, Cl” value (Goodman & Gilman) does the source give for `O=C(O)Cc1ccccc1Nc1c(Cl)cccc1Cl` [Diclofenac, 2-(2,6-dichloro-anilino)-benzeneacetic acid] here?
A: 4.2 mL/min/kg

Q: What about the “Minimum effective diclofenac blood concentration” value (Nishihata et al. 1988) of the same compound?
A: 50 ng/mL
